In ChEMBL document CHEMBL1201862, “PubChem BioAssay data set” (2004):
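A five-concentration, 48-hour dose response in 96-well plates underlies each endpoint, interpolated linearly between surrounding concentrations. The concentration for 50% growth inhibition is given as GI50.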 Activity calls are given as the source filed them. Cut-off read from the data, not from the text of the source: active = GI50 up to about 1.1 µM and inactive = higher.

How the values were obtained:
Assay in all cases: inhibition of tumour cell growth, NCI panel, 48 h
SF-268 = system: SF-268
KM12 = system: KM12
A549 = system: A549
SF-295 = system: SF-295
SK-MEL-5 = system: SK-MEL-5
SK-MEL-2 = system: SK-MEL-2
TK-10 = system: TK-10
BT-549 = system: BT-549
SNB-19 = system: SNB-19
MOLT-4 = system: MOLT-4
SNB-75 = system: SNB-75
MCF7 = system: MCF7
SF-539 = system: SF-539
A498 = system: A498
786-0 = system: 786-0
HT-29 = system: HT-29
UACC-257 = system: UACC-257
CCRF-CEM = system: CCRF-CEM
MDA-N = system: MDA-N

Measured: GI50

CC(C)NC(=O)OCc1c(COC(=O)NC(C)C)c(-c2ccc[n+](COC(=O)C3CC3)c2)n2c1CCC2
inactive: SF-268 28.4 µM | KM12 > 100 µM | A549 89.1 µM | SF-295 45.9 µM | SK-MEL-5 > 100 µM | SK-MEL-2 57.1 µM | TK-10 > 100 µM | BT-549 76.6 µM | SNB-19 > 100 µM | MOLT-4 14.9 µM | SNB-75 70.6 µM | MCF7 49.5 µM | SF-539 44.7 µM | A498 35.9 µM | 786-0 27 µM | HT-29 79.4 µM | UACC-257 > 100 µM | CCRF-CEM 30.4 µM

CC1CN=C(N(Cc2ccccc2)C(=O)Nc2ccc(Cl)c(Cl)c2)S1 (stereo not given)
inactive: SF-268 62.7 µM | KM12 40.7 µM | A549 36.9 µM | SF-295 > 10 µM | SK-MEL-5 23.3 µM | SK-MEL-2 23.4 µM | TK-10 32.4 µM | MDA-N 29.6 µM | SNB-19 62.4 µM | MOLT-4 > 10 µM | SNB-75 35.6 µM | MCF7 52.1 µM | SF-539 33.3 µM | A498 35.7 µM | 786-0 30.5 µM | HT-29 30.1 µM | UACC-257 32.5 µM | CCRF-CEM > 10 µM

COc1ccc2c(=O)c3ccoc3[nH]c2c1
inactive: SF-268 > 100 µM | KM12 > 100 µM | SF-295 > 100 µM | SK-MEL-5 > 100 µM | SK-MEL-2 > 100 µM | TK-10 > 100 µM | BT-549 > 100 µM | SNB-19 > 100 µM | MOLT-4 > 100 µM | SNB-75 > 100 µM | MCF7 > 100 µM | SF-539 > 100 µM | A498 > 100 µM | 786-0 > 100 µM | HT-29 > 100 µM | UACC-257 > 100 µM | CCRF-CEM > 100 µM

N#CC(c1cc(Cl)ncn1)c1nc2ccccc2s1 (stereo not given)
inactive: SF-268 5.25 µM | KM12 3.87 µM | A549 27.8 µM | SF-295 15.6 µM | SK-MEL-5 16.4 µM | TK-10 4.81 µM | MDA-N 6.03 µM | BT-549 5 µM | SNB-19 5.93 µM | MOLT-4 3.42 µM | SNB-75 13.6 µM | SF-539 5.42 µM | A498 21.8 µM | 786-0 3.77 µM | HT-29 10.3 µM | UACC-257 10.5 µM

Cc1ccc(S(=O)(=O)C(C#N)c2nc3ccccc3nc2-n2cccn2)cc1 (stereo not given)
inactive: SF-268 > 100 µM | KM12 > 100 µM | A549 > 100 µM | SF-295 > 100 µM | SK-MEL-2 > 100 µM | TK-10 > 100 µM | SNB-19 > 100 µM | MOLT-4 > 100 µM | SNB-75 > 100 µM | SF-539 > 100 µM | 786-0 > 100 µM | HT-29 > 100 µM | UACC-257 > 100 µM | CCRF-CEM > 100 µM

COc1cccc(/C=C2\CCCCCC2=O)c1
inactive: SF-268 > 100 µM | KM12 65.5 µM | A549 > 100 µM | SF-295 > 100 µM | SK-MEL-5 70.1 µM | SK-MEL-2 > 100 µM | TK-10 > 100 µM | MDA-N > 100 µM | BT-549 > 100 µM | SNB-19 19.7 µM | MOLT-4 71.9 µM | SNB-75 62.5 µM | A498 > 100 µM | 786-0 > 100 µM | HT-29 > 100 µM | UACC-257 > 100 µM

O=C1CS/C(=N/N=C/c2cn(Cc3ccc(Cl)cc3Cl)c3ccccc23)N1
inactive: SF-268 30.8 µM | KM12 54.3 µM | A549 63 µM | SF-295 64.4 µM | SK-MEL-5 35.6 µM | SK-MEL-2 23.6 µM | TK-10 > 100 µM | BT-549 > 100 µM | SNB-19 35.9 µM | MOLT-4 38.2 µM | SNB-75 19.1 µM | MCF7 18.5 µM | SF-539 18.2 µM | A498 19.9 µM | 786-0 22.4 µM | HT-29 50.1 µM | UACC-257 67.8 µM | CCRF-CEM 15.8 µM

C[C@@H]1[C@H](C)N1CC(O)Cn1ccnc1[N+](=O)[O-] (stereo not given in full)
inactive: SF-268 > 100 µM | KM12 > 100 µM | A549 > 100 µM | SF-295 > 100 µM | SK-MEL-5 > 100 µM | SK-MEL-2 > 100 µM | TK-10 > 100 µM | MDA-N > 100 µM | SNB-19 > 100 µM | MOLT-4 > 100 µM | SNB-75 > 100 µM | MCF7 > 100 µM | SF-539 > 100 µM | A498 > 100 µM | 786-0 > 100 µM | HT-29 > 100 µM | UACC-257 > 100 µM | CCRF-CEM > 100 µM
